From patent publication US9963462B2 (priority 2015, dated 2018)
Like-named read-outs stand apart in the source and are kept apart here.

Key:
[1] = target: SNAP-hSPR (sepiapterin reductase, SPR) (Homo sapiens, UniProt P35270); experiment: biochemical; assay type: binding; details: terbium labelled SNAP-hSPR / SSZ labelled SNAP-EGFP; read-out: hTR-FRET IC50
[2] = tested on: BH4 levels in SK-N-BE (2) cells; experiment: SKN-N-BE (2) cellular assay, BH4 levels by LC-MS; assay type: cell-based
[3] = Homo sapiens, SKNBE2, read-out: SK-N-BE(2) IC50, SK-N-BE (2) cells, BH4 levels by LC-MS

Chain of SNAP-hSPR (sepiapterin reductase, SPR) (P35270 whole entry): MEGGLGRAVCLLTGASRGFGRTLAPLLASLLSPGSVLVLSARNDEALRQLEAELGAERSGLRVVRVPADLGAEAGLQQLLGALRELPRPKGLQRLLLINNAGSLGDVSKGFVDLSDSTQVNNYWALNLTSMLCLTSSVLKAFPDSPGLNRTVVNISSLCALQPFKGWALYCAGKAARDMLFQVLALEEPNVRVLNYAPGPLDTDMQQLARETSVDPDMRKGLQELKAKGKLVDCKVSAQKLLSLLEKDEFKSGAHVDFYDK

SMILES | IC50 [1] [nM] | IC50 [2, 3] [nM] | IC50 ([2]; read-out: SK-N-BE(2) IC50, SK-N-BE (2) cells, BH4 levels by LC-MS) [nM]
O=C(c1cnn(-c2nc3ccsc3c(=O)[nH]2)c1)N1CCC(c2nc3ccccc3s2)CC1 [Q-0528] | 70 | 800 | 
O=c1[nH]c(-n2cc(OC3CCCC3)cn2)nc2c1CCC2 [Q-0529] | 10 | 100 | 
O=C(c1cnc(-c2nc3ccsc3c(=O)[nH]2)s1)N1CCC(C(F)(F)F)CC1 [Q-0530] | 30 | 1800 | 
Cc1c(C(=O)N2CCC(C(C)(C)C#N)CC2)cnn1-c1nc2ccsc2c(=O)[nH]1 [Q-0531] | 4 | 62 | 
Cc1c(C(=O)Nc2ccccc2N2CCOCC2)cnn1-c1nc2c(c(=O)[nH]1)CCC2 [Q-0532] | 20 | 44 | 
N#CC1(c2ccccc2)CCN(C(=O)c2cnn(-c3nn4cccc4c(=O)[nH]3)c2)CC1 [Q-0534] | 3 | 100 | 
O=C(c1cnn(-c2nn3cccc3c(=O)[nH]2)c1)N1CCC(S(=O)(=O)c2ccccc2)CC1 [Q-0535] | 4 | 400 | 
O=C(c1cnn(-c2nn3cccc3c(=O)[nH]2)c1)N1CCC(c2c[nH]c3ccccc23)CC1 [Q-0536] | 7 | 59 | 
O=C(c1cnn(-c2nn3cccc3c(=O)[nH]2)c1)N1CCC(c2nc3ccccc3s2)CC1 [Q-0537] | 40 | 200 | 
Cc1c(C(=O)N2CCC(C(F)(F)F)CC2)cnn1-c1nn2cc(F)cc2c(=O)[nH]1 [Q-0543] | 3 | 400 | 
Cc1c(C(=O)N2CCN(c3ccccc3)CC2)cnn1-c1nc2c(c(=O)[nH]1)CCC2 [Q-0545] | 2 | 41 | 
O=C(c1cnn(-c2nc3c(c(=O)[nH]2)CCC3)c1C1CC1)N1CCC(c2nc3ccccc3s2)CC1 [Q-0546] | 9 | 84 | 
O=C(O)c1ccnc(-c2nc3ccsc3c(=O)[nH]2)c1 [Q-0547] | 2300 | 10000 | 
O=C(c1ccnc(-c2nc3ccsc3c(=O)[nH]2)c1)N1CCC(c2nc3ccccc3s2)CC1 [Q-0548] | 20 | 2100 | 
Cc1c(C(=O)N2CC[C@@H](N(C)C(=O)OC(C)(C)C)C2)cnn1-c1nc2ccsc2c(=O)[nH]1 [Q-0549] | 4 | 400 | 
Cc1c(C(=O)N2CCC(C#N)(c3ccccc3)CC2)cnn1-c1nc2ccsc2c(=O)[nH]1 [Q-0550] | 2 | 100 | 
Cc1c(C(=O)N2CCC3(CCCN3Cc3ccccc3)C2)cnn1-c1nc2c(c(=O)[nH]1)CCC2 (centres unmarked) [Q-0551] | 6 | 500 | 
Cc1c(C(=O)N2CCC3(CCCCN3C(=O)OC(C)(C)C)C2)cnn1-c1nc2c(c(=O)[nH]1)CCC2 (centres unmarked) [Q-0552] | 7 | 38 | 
CC(C)(C#N)C1CCN(C(=O)c2cnn(-c3nc4c(c(=O)[nH]3)CCC4)c2C2CC2)CC1 [Q-0553] | 6 | 200 | 
O=C(c1ccnc(-c2nc3ccsc3c(=O)[nH]2)c1)N1CCC(c2c[nH]c3ccccc23)CC1 [Q-0555] | 20 | 700 | 
Cc1c(C(=O)N2CCN3CCC[C@@H]3C2)cnn1-c1nc2ccsc2c(=O)[nH]1 [Q-0556] | 7 | 600 | 
Cc1c(C(=O)N2CCC3OCCCC3C2)cnn1-c1nc2ccsc2c(=O)[nH]1 (centres unmarked) [Q-0557] | 8 | 600 | 

SMILES | IC50 [1] [nM] | IC50 [2, 3] [nM] | IC50 ([2]; read-out: SK-N-BE(2) IC50, SK-N-BE (2) cells, BH4 levels by LC-MS) [nM]
O=C(O)c1ccnc(-c2nc3c(c(=O)[nH]2)CCC3)c1 [Q-0558] | 5000 | 10000 | 
Cc1c(C(=O)N2CCC(c3nc4ccccc4s3)CC2)cnn1-c1nc2ccsc2c(=O)[nH]1 [Q-0559] | 7 | 38 | 
Cc1c(C(=O)N2CCC(c3c[nH]c4ccccc34)CC2)cnn1-c1nc2ccsc2c(=O)[nH]1 [Q-0560] | 3 | 12 | 
Cc1c(C(=O)N2CCC(C#N)(c3ccccc3)CC2)cnn1-c1nc2sccc2c(=O)[nH]1 [Q-0561] | 4 | 11 | 
CCC1(C#N)CCN(C(=O)c2cnn(-c3nc4ccsc4c(=O)[nH]3)c2C)CC1 [Q-0562] | 4 | 200 | 
CCC1(C#N)CCN(C(=O)c2cnn(-c3nc4sccc4c(=O)[nH]3)c2C)CC1 [Q-0563] | 5 | 300 | 
Cc1c(C(=O)N2CCC(C(F)(F)F)CC2)ccnc1-c1nc2ccsc2c(=O)[nH]1 [Q-0564] | 200 | 4000 | 
Cc1c(C(=O)N2CCC(c3c[nH]c4cc(F)ccc34)CC2)cnn1-c1nc2c(c(=O)[nH]1)CCC2 [Q-0565] | 6 | 11 | 
O=C(O)c1ccnc(-c2nc3sccc3c(=O)[nH]2)c1 [Q-0566] | 5000 | 10000 | 
Cc1c(C(=O)N2CCN(c3ccc(F)cc3F)CC2)cnn1-c1nc2c(c(=O)[nH]1)CCC2 [Q-0567] | 3 | 20 | 
Cc1c(C(=O)N2CC(CNC(=O)OC(C)(C)C)C2)cnn1-c1nc2c(c(=O)[nH]1)CCC2 [Q-0568] | 6 | 200 | 
Cc1c(C(=O)N2CC3COCC(C3)C2)cnn1-c1nc2c(c(=O)[nH]1)CCC2 [Q-0569] | 10 | 300 | 
Cc1c(C(=O)N2CCN(c3ccccc3Cl)CC2)cnn1-c1nc2c(c(=O)[nH]1)CCC2 [Q-0570] | 3 | 23 | 
Cc1c(C(=O)N2CCC(c3c[nH]c4ccccc34)CC2)cnn1-c1nc2sccc2c(=O)[nH]1 [Q-0573] | 3 | 35 | 
Cc1c(C(=O)N2CCC(c3nc4ccccc4s3)CC2)cnn1-c1nc2sccc2c(=O)[nH]1 [Q-0574] | 6 | 47 | 
Cc1c(C(=O)N2CCN3CCC[C@@H]3C2)cnn1-c1nc2c(c(=O)[nH]1)CCC2 [Q-0575] | 3 | 200 | 
Cc1c(C(=O)N2CCC3OCCCC3C2)cnn1-c1nc2c(c(=O)[nH]1)CCC2 (centres unmarked) [Q-0576] | 6 | 100 | 
Cc1c(C(=O)N2CCC3(CCCCN3)C2)cnn1-c1nc2c(c(=O)[nH]1)CCC2 (centres unmarked) [Q-0577, 2-(5-methyl-4-(2,6-diazaspiro[4.5]decane-2-carbonyl)-1H-pyrazol-1-yl)-6,7-dihydro-3H-cyclopenta[d]pyrimidin-4(5H)-one] | 40 | 2100 | 
CC(C#N)C1CCN(C(=O)c2cnn(-c3nc4c(c(=O)[nH]3)CCC4)c2C2CC2)CC1 (centres unmarked) [Q-0578] | 8 | 700 | 
Cc1c(C(=O)N2CCC3(CCCCN3C(=O)OC(C)(C)C)C2)cnn1-c1nc2ccsc2c(=O)[nH]1 (centres unmarked) [Q-0579] | 5 | 100 | 
Cc1c(C(=O)N2CCC(C(C)(C)C)CC2)cnn1-c1nc2c(c(=O)[nH]1)CCC2 [Q-0580] | 3 | 22 | 
Cc1c(C(=O)N2CC(CNC(=O)OC(C)(C)C)C2)cnn1-c1nc2ccsc2c(=O)[nH]1 [Q-0582] | 20 | 1000 | 

SMILES | IC50 [1] [nM] | IC50 [2, 3] [nM] | IC50 ([2]; read-out: SK-N-BE(2) IC50, SK-N-BE (2) cells, BH4 levels by LC-MS) [nM]
Cc1c(C(=O)N2CC(CN)C2)cnn1-c1nc2ccsc2c(=O)[nH]1 [Q-0583] | 100 | 3700 | 
CN[C@@H]1CCN(C(=O)c2cnn(-c3nc4ccsc4c(=O)[nH]3)c2C)C1 [Q-0584] | 200 | 10000 | 
Cc1c(C(=O)N2CCC(c3c[nH]c4ccccc34)CC2)cnn1-c1nn2cccc2c(=O)[nH]1 [Q-0585] | 6 | 33 | 
Cc1c(C(=O)N2CCC(c3nc4cc(F)ccc4s3)CC2)cnn1-c1nc2c(c(=O)[nH]1)CCC2 [Q-0587] | 10 | 21 | 
CN[C@@H]1CCN(C(=O)c2cnn(-c3nc4c(c(=O)[nH]3)CCC4)c2C)C1 [Q-0588] | 70 | 4700 | 
Cc1c(C(=O)N2CC(CN)C2)cnn1-c1nc2c(c(=O)[nH]1)CCC2 [Q-0589] | 60 | 1700 | 
Cc1c(C(=O)N2CCC(c3nc4ccc(F)cc4s3)CC2)cnn1-c1nc2c(c(=O)[nH]1)CCC2 [Q-0590] | 3 | 15 | 
Cc1c(C(=O)N2CCC(c3cn(C)c4ccccc34)CC2)cnn1-c1nc2c(c(=O)[nH]1)CCC2 [Q-0592] | 20 | 76 | 
O=C(c1cccc(-c2nc3c(c(=O)[nH]2)CCC3)c1)N1CCC(C(F)(F)F)CC1 [Q-0593, 2-(3-(4-(trifluoromethyl)piperidine-1-carbonyl)phenyl)-6,7-dihydro-3H-cyclopenta[d]pyrimidin-4(5H)-one] | 200 | 7400 | 
Cc1c(C(=O)N2CCC(c3c[nH]c4ccccc34)CC2)ccnc1-c1nc2ccsc2c(=O)[nH]1 [Q-0594] | 300 | 3600 | 
Cc1c(C(=O)N2CCC3(CCCCN3)C2)cnn1-c1nc2ccsc2c(=O)[nH]1 (centres unmarked) [Q-0595] | 70 | 4400 | 
Cc1c(C(=O)N2CC2c2ccccc2)cnn1-c1nc2c(c(=O)[nH]1)CCC2 (centres unmarked) [Q-0596] | 4 | 16 | 
Cc1c(C(=O)N2CCC(S(=O)(=O)c3ccc(F)c(F)c3)CC2)cnn1-c1nc2ccsc2c(=O)[nH]1 [Q-0597] | 3 | 53 | 
Cc1c(C(=O)N2CCC(C(O)(C(F)(F)F)C(F)(F)F)CC2)cnn1-c1nc2c(c(=O)[nH]1)CCC2 [Q-0598] | 4 |  | 10
Cc1c(C(=O)N2CCC(C#N)(c3ccccc3)CC2)cnn1-c1nn2cccc2c(=O)[nH]1 [Q-0599] | 2 | 12 | 
Cc1c(C(=O)N2CCC(C(C)(C)C#N)CC2)cnn1-c1nn2cccc2c(=O)[nH]1 [Q-0600] | 1 | 57 | 
Cc1c(C(=O)N2CCC3(CCCN3Cc3ccccc3)C2)cnn1-c1nc2ccsc2c(=O)[nH]1 (centres unmarked) [Q-0601] | 5 | 100 | 
Cc1c(C(=O)N2CC3COCC(C3)C2)cnn1-c1nc2ccsc2c(=O)[nH]1 [Q-0602] | 20 | 1200 | 
Cc1c(C(=O)N2CCC(c3nc4cc(F)ccc4s3)CC2)cnn1-c1nc2ccsc2c(=O)[nH]1 [Q-0603] | 6 | 100 | 
Cc1c(C(=O)N2CCC(c3nc4cc(F)ccc4s3)CC2)cnn1-c1nn2cccc2c(=O)[nH]1 [Q-0604] | 7 | 72 | 
